The source of these data is US20110065760A1, “COMPOUNDS FOR THE INHIBITION OF ROTAMASES AND USE THEREOF” (Jerini AG, priority 2002, published 2011).

One may read the IC50 as the concentration needed to halve the response being measured. What is called EC50 is the concentration that produces a half-maximal response.

The target of one data set is hPin1 (Homo sapiens, UniProt Q13526). Nature of the data set: protease-coupled PPIase assay, hPin1. In kind it is biochemical. To be noted: 6 nM hPin1, substrate Ac-Ala-Ala-Ser(PO3H2)-Pro-Arg-pNA, trypsin, pH 7.8, 6° C.; read-out: IC50 class, Target T-1 (hPin1).
hPin1, sequence (Q13526 whole entry): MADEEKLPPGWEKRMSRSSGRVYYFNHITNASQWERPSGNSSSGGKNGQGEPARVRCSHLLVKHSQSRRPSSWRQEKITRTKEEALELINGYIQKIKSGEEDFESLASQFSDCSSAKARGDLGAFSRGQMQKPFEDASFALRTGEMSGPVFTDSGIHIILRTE
A further data set has as its target LpCyp18 (Legionella pneumophila, UniProt Q5ZRZ4). As to the kind of experiment: biochemical. To be noted: IC50 class, Target T-4 (LpCyp18).
For the next data set, the system named is HL-60 cells. As to the kind of experiment: FACS measurements and TUNEL assay (Apo-Direct kit). In kind it is cell-based, human. To be noted: FIG. 2. An excerpt: Enari M. Sakahira H. Yokoyama H. Okawa K. Iwamatsu A. Nagata S. A caspase-activated DNase that degrades DNA during apoptosis, and its inhibitor ICAD [erratum appears in Nature 1998 May 28; 393(6683):396.]. Nature. 391:43-50, 1998 • Darzynkiewicz Z. Juan G. Li X. Gorczyca W. Murakami T. Traganos F. Cytometry in cell necrobiology: analysis of apoptosis and accidental cell death (necrosis). Cytometry. 27:1-20, 1997
Apoptotic HL-60 cells were detected by FACS analysis of FITC-dUTP-labelled DNA breaks using the Apo-Direct kit (BD-Pharmingen) according to the manufacturer's protocol.

A short description of data set [1]: WST-1 cytotoxicity assay, HL-60. In kind it is cell-based. To be noted: human, HL-60 cells (acute myeloid leukemia); WST-1, 48 h incubation; read-out: EC50 class, cytotoxic effect, CL-1 (HL-60). In short, it runs like this: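 Human tumour cell lines in culture were exposed to compounds at 37° C for 48 h, then given WST-1. Viability was read as formazan absorbance at (450 vs. 620) nm.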

Data set [2] deals with cyclin D1 in MCF-7 and HeLa cells. Nature of the data set: Cyclin D1 down regulation (western blot marker analysis). In kind it is cell-based, human. The protocol: MCF-7 (5×10^5 cells/well) and HeLa cells (1.5×10^5 cells/well) were seeded in 6-well plates and incubated at 37° C. over night. Compounds or DMSO (final solvent concentration 0.1%) were added to the cells and incubated for different times as indicated. Subsequently, cells were lysed in RIPA buffer for 30 min on ice and centrifuged for 20 min at 4° C. After addition of electrophoresis sample buffer (4×) and 50 mM DTT to the supernatant, samples were boiled for 4 min at 95° C. Samples (equivalent to 2×10^5 cells/well) were run on a 15% SDS gel followed by blotting onto PVDF membrane.
The membrane was blocked for 1 h in 10 mM Tris (pH 7.5), 100 mM NaCl, 0.1% Tween-20 and 5% non-fat dry milk (blocking buffer) and incubated for 1 h with mouse anti-hCyclin D1 monoclonal antibody (clone DCS-6, BD Biosciences) diluted to 1 μg/ml in blocking buffer. Blots were washed 3×10 min with 10 mM Tris (pH 7.5), 100 mM NaCl, 0.1% Tween-20 (washing buffer) and incubated with 0.7 μg/ml peroxidase-conjugated sheep anti-mouse IgG (Sigma) in blocking buffer for 1 h. After washing 3×10 min with washing buffer, the plot was developed with the ECL+ detection kit (Amersham Biosciences).
(In general: In western blotting, separated proteins are transferred to a membrane and probed.)

Data set [3] can be described thus: WST-1 cytotoxicity assay, Caco-2. In kind it is cell-based. To be noted: human, Caco-2 cells (colon adenocarcinoma); WST-1, 48 h incubation; read-out: EC50 class, cytotoxic effect, CL-4 (Caco-2). The protocol:
For this cytotoxic evaluation of the compounds the commercial available WST-1 assay (Roche) was used according to the manufacturer's instructions. The assay is based on the cleavage of the tetrazolium salt WST-1 by mitochondrial dehydrogenases found in viable cells. In general compounds were added to cells cultured in 96-well plates at 37° C. After 48 h of incubation 10 μl of WST-1 solution was added. The formazan dye was analyzed with an ELISA plate reader at (450 vs. 620) nm. CL-1: human acute myeloid leukemia, HL-60 CL-2: human cervix carcinoma, HeLa CL-3: human prostate carcinoma, PC-3 CL-4: human colon adenocarcinoma, Caco-2 CL-5: human breast adenocarcinoma, MCF-7

LpCyp18, sequence (Q5ZRZ4 1-164): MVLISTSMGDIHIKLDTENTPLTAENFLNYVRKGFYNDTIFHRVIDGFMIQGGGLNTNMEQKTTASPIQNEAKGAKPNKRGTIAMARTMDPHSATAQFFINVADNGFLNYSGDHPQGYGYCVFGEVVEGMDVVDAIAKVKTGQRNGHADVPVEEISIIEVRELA

Take `Cc1c(Cl)cc(NC(=O)NC(C)(C)CC(C)(C)C)c(O)c1Cl` [Compound 102]: the IC50 was 1 to 10 µM on hPin1 and 10 to 50 µM on LpCyp18. The “induction of apoptosis (FACS analysis of FITC-dUTP-labelled DNA breaks)” value in the data set with HL-60 cells is on record as “induce apoptosis”. The half-maximal effective concentration (EC50) at 48 h in data set [1] and in data set [3] was below 10 µM each time. The “cyclin D1 down regulation” value in data set [2] was “particular relevance”.
